Results on eight molecules are retold here after patent publication EP0878472A1, “Reactive radiation- or thermally- initiated cationically-curable epoxide monomers and compositions made from those monomers” (National Starch and Chemical Investment Holding Corporation, priority 1997, dated 1998).

What all share (assay type): physicochemical
Series [1] can be described thus: Photo-DSC analysis of various styrene oxides formulated with photoinitiator and diol (Example 6).
Experimental: A sample in the range of 1.5 to 3.0 mg for each composition was exposed to UV radiation and the rate of cure followed by a DPA-7 Perkin-Elmer Photo-Differential Scanning Calorimeter (P-DSC). Each sample was equilibrated to constant temperature (25 °C) on the Calorimeter for one minute and then exposed to irradiation for a total of four minutes using a 100 Watt Mercury short arc lamp. […] In the Tables, Tmax is the time it took to reach the peak maximum exotherm in seconds, and ΔH is the exotherm of the reaction in kJoules per mole of epoxy, measured as the area over the cure from the four minute baseline back to the onset of exotherm.
Photo-DSC of various styrene oxides was conducted by formulating the epoxides with a photoinitiator and a diol.
A short description of series [2]: Photo-DSC (P-DSC) UV cure of epoxide/diol adhesive compositions (Example 3). The method, then:
These compositions were compared to control formulations containing a cycloaliphatic epoxide obtained from Union Carbide, as product ERL-4221, which has the structure: [drawing 5]
A sample in the range of 1.5 to 3.0 mg for each composition was exposed to UV radiation and the rate of cure followed by a DPA-7 Perkin-Elmer Photo-Differential Scanning Calorimeter (P-DSC). Each sample was equilibrated to constant temperature (25 °C) on the Calorimeter for one minute and then exposed to irradiation for a total of four minutes using a 100 Watt Mercury short arc lamp. […] The diol used in the compositions, the molar ratio of epoxy to diol, and the DSC results are set out in Table 1 for the inventive styrene epoxy, and in Table 2 for the cycloaliphatic epoxy. In the Tables, Tmax is the time it took to reach the peak maximum exotherm in seconds, and ΔH is the exotherm of the reaction in kJoules per mole of epoxy, measured as the area over the cure from the four minute baseline back to the onset of exotherm.
The time the reaction takes to reach Tmax is a direct indication of the speed of the reaction; thus, the shorter the time (i.e. the sharper the peak), the faster the cure reaction for the epoxy, which is a desirable property for these adhesive compositions. In the following tables, the peak are designated either sharp or broad; for purposes herein, if more than half the exotherm occurred in the first 30 seconds, the peak was defined as sharp, and conversely, if less than half the exotherm occurred in the first 30 seconds, the peak was defined as broad.
The ΔH values are a direct indication of the degree of epoxy ring opening, with the more negative numbers reflecting the higher degree of conversion of the epoxy.

A short description of series [3]: Storage stability of the epoxide at room temperature. The procedure: The epoxidation may be performed on the starting olefinic compound by any suitable method known in the art, but is preferably conducted through a potassium monopersulfate/acetone oxidation of the olefinic portion of the corresponding styrene. The styrene compound is suspended in a mixture of acetone and water, and buffered with sodium bicarbonate, which serves to prevent decomposition of the resultant oxides. This suspension is then treated with an excess of the oxidant, provided as an aqueous solution of the monopersulfate compound (2KHSO5.KHSO4.K2SO4,) (Oxone®, a product of DuPont). The recovered solution is partitioned with ethyl acetate, toluene, methylene chloride, or other suitable solvent. Workup consists of washing the organic layer with water followed by drying with a non-acidic drying agent (e.g., anhydrous […]). Filtering this mixture, followed by removal of organic solvent in vacuo, affords the desired epoxide in high yield without further purification. […]
A suspension of 1 equivalent of 1,3-diisopropenyl benzene (5mL, 0.925g/mL, 29.2mmol) and 6 equivalents of sodium bicarbonate (15.9g, 190mmol) in a 2 : 1 mixture (volume : volume) of acetone : water (total 450mL) was treated with an aqueous solution containing 2 equivalents of potassium persulfate (Oxone®) (36.5g, 59.3mmol). […] The pH was monitored during this time and remained neutral. […]

[4] abbreviates: Stepanol PS-4002, Epoxy:Diol 1:1.
Where [5] appears, read: Stepanol PS-4002, Epoxy:Diol 3:1.

On to `CC(=O)OCC1OC1c1ccccc1` (stereo not drawn) [cinnamyl acetate epoxy, cinnamyl acetate epoxide], for which the ΔH in series [1] (MP-diol, Epoxy:Diol 1:1) is reported as -27.5 kJ/Mole EPOXIDE; in series [1] (MP-diol, Epoxy:Diol 3:1) it was -16.1 kJ/Mole EPOXIDE; in series [1] (Tone polyol, Epoxy:Diol 1:1), -55.6 kJ/Mole EPOXIDE; in series [1] (Tone polyol, Epoxy:Diol 3:1) it was -30.8 kJ/Mole EPOXIDE; in series [1] (no diol) it was 0 kJ/Mole EPOXIDE.

As to `O=C(OCC1CCC2OC2C1)C1CCC2OC2C1` (stereo not drawn) [ERL-4221], the Tmax in series [2] (MP-diol, Epoxy:Diol 1:1) is 21.20 s; in series [2] (MP-diol, Epoxy:Diol 3:1) it was 6.39 s; in series [2] (Rucoflex 107, Epoxy:Diol 1:1), 6.81 s; in series [2] (Rucoflex 107, Epoxy:Diol 3:1), 2.10 s; in series [2] (setting [4]), 17.10 s; in series [2] (setting [5]), 5.34 s. The Tmax stood at 13.47 s in series [2] (SynFac 8031, Epoxy:Diol 1:1); 13.17 s in series [2] (SynFac 8031, Epoxy:Diol 3:1); 9.21 s in series [2] (Tone 0201, Epoxy:Diol 1:1); 42.66 s in series [2] (Tone 0201, Epoxy:Diol 1:3); 6.00 s in series [2] (Tone 0201, Epoxy:Diol 3:1); 4.62 s in series [2] (no diol, 1% UVI-6974, 25 °C). Further, the ΔH is -78.4 kJ/mole epoxide in series [2] (MP-diol, Epoxy:Diol 1:1); -49.0 kJ/mole epoxide in series [2] (MP-diol, Epoxy:Diol 3:1); -68.9 kJ/mole epoxide in series [2] (Rucoflex 107, Epoxy:Diol 1:1); -42.9 kJ/mole epoxide in series [2] (Rucoflex 107, Epoxy:Diol 3:1); -79.4 kJ/mole epoxide in series [2] (setting [4]); -14.3 kJ/mole epoxide in series [2] (setting [5]). The ΔH in series [2] (SynFac 8031, Epoxy:Diol 1:1) was -67.8 kJ/mole epoxide; in series [2] (SynFac 8031, Epoxy:Diol 3:1), -39.7 kJ/mole epoxide; in series [2] (Tone 0201, Epoxy:Diol 1:1) it was -62.0 kJ/mole epoxide; in series [2] (Tone 0201, Epoxy:Diol 1:3) it was -44.0 kJ/mole epoxide; in series [2] (Tone 0201, Epoxy:Diol 3:1), -30.3 kJ/mole epoxide; in series [2] (no diol, 1% UVI-6974, 25 °C) it was -10.0 kJ/mole epoxide. Also, in series [2] (range over all diols and ratios of Tables 1 and 2), the extents of cure was -79.4 to -10.0 kJ.

`COCC1OC1c1ccccc1` (stereo not drawn) [cinnamyl methyl ether epoxy, cinnamyl methyl ether epoxide]: the ΔH was -57.8 kJ/Mole EPOXIDE in series [1] (MP-diol, Epoxy:Diol 1:1); -63.6 kJ/Mole EPOXIDE in series [1] (MP-diol, Epoxy:Diol 3:1); -98,8 kJ/Mole EPOXIDE in series [1] (Tone polyol, Epoxy:Diol 1:1); -82,4 kJ/Mole EPOXIDE in series [1] (Tone polyol, Epoxy:Diol 3:1); -43.9 kJ/Mole EPOXIDE in series [1] (no diol).

As for divinylbenzene dioxide [Example 2], the “advancement of the epoxide” value in series [3] (after one year at room temperature) is listed as “no advancement”.

Regarding `COc1cc(C2OC2C)ccc1OC(C)=O` (stereo not drawn) [isoeugenol acetate epoxy, isoeugenol acetate epoxide], the ΔH in series [1] (MP-diol, Epoxy:Diol 1:1) is given as -70,1 kJ/Mole EPOXIDE; in series [1] (MP-diol, Epoxy:Diol 3:1) it was -67.6 kJ/Mole EPOXIDE; in series [1] (Tone polyol, Epoxy:Diol 1:1), -75.0 kJ/Mole EPOXIDE; in series [1] (Tone polyol, Epoxy:Diol 3:1) it was -65.0 kJ/Mole EPOXIDE; in series [1] (no diol), -15.7 kJ/Mole EPOXIDE.

“1,3-diisopropenylbenzene dioxide [Example 1]”: the Tmax in series [2] (MP-diol, Epoxy:Diol 1:1) amounted to 4.35 s; in series [2] (MP-diol, Epoxy:Diol 3:1), 2.94 s; in series [2] (Rucoflex 107, Epoxy:Diol 1:1), 4.32 s; in series [2] (Rucoflex 107, Epoxy:Diol 3:1), 4.20 s; in series [2] (setting [4]), 6.12 s; in series [2] (setting [5]) it was 4.83 s. Moreover, the Tmax in series [2] (SynFac 8031, Epoxy:Diol 1:1) is 4.74 s; in series [2] (SynFac 8031, Epoxy:Diol 3:1), 3.57 s; in series [2] (Tone 0201, Epoxy:Diol 1:1), 3.57 s; in series [2] (Tone 0201, Epoxy:Diol 1:3), 4.59 s; in series [2] (Tone 0201, Epoxy:Diol 3:1) it was 3.96 s; in series [2] (no diol, 1% UVI-6974, 25 °C), 3.84 s. Moreover, the ΔH in series [2] (MP-diol, Epoxy:Diol 1:1) is given as -77.4 kJ/mole epoxide; in series [2] (MP-diol, Epoxy:Diol 3:1), -58.2 kJ/mole epoxide; in series [2] (Rucoflex 107, Epoxy:Diol 1:1), -84.1 kJ/mole epoxide; in series [2] (Rucoflex 107, Epoxy:Diol 3:1), -79.1 kJ/mole epoxide; in series [2] (setting [4]) it was -76.0 kJ/mole epoxide; in series [2] (setting [5]), -62.6 kJ/mole epoxide. In addition, the ΔH in series [2] (SynFac 8031, Epoxy:Diol 1:1) was -71.8 kJ/mole epoxide; in series [2] (SynFac 8031, Epoxy:Diol 3:1), -65.5 kJ/mole epoxide; in series [2] (Tone 0201, Epoxy:Diol 1:1) it was -73.4 kJ/mole epoxide; in series [2] (Tone 0201, Epoxy:Diol 1:3), -75.9 kJ/mole epoxide; in series [2] (Tone 0201, Epoxy:Diol 3:1), -56.4 kJ/mole epoxide; in series [2] (no diol, 1% UVI-6974, 25 °C), -57.8 kJ/mole epoxide. For the same molecule, the ΔH was -72.8 kJ/Mole EPOXIDE in series [1] (Tone polyol, Epoxy:Diol 1:1) and -57.8 kJ/Mole EPOXIDE in series [1] (no diol). In series [3] (after 13 days at room temperature), the “advancement of the epoxide” value is “no advancement”.

Turning to `CC1OC1c1ccccc1` (stereo not drawn) [beta-methyl styrene epoxy, beta-methyl styrene mono-epoxide], the ΔH is -102.6 kJ/Mole EPOXIDE in series [1] (MP-diol, Epoxy:Diol 1:1); -75.7 kJ/Mole EPOXIDE in series [1] (MP-diol, Epoxy:Diol 3:1); -80.5 kJ/Mole EPOXIDE in series [1] (Tone polyol, Epoxy:Diol 1:1); -54.5 kJ/Mole EPOXIDE in series [1] (Tone polyol, Epoxy:Diol 3:1); -85.4 kJ/Mole EPOXIDE in series [1] (no diol).

As for `CC1(c2ccccc2)CO1` (stereo not drawn) [alpha methyl styrene epoxy], the ΔH in series [1] (MP-diol, Epoxy:Diol 1:1) is -80.9 kJ/Mole EPOXIDE; in series [1] (MP-diol, Epoxy:Diol 3:1) it was -56.4 kJ/Mole EPOXIDE; in series [1] (Tone polyol, Epoxy:Diol 1:1), -76.5 kJ/Mole EPOXIDE; in series [1] (Tone polyol, Epoxy:Diol 3:1), -66.7 kJ/Mole EPOXIDE; in series [1] (no diol) it was -53.3 kJ/Mole EPOXIDE.
